Blank lines part the entries; values can stand above or below the compound they belong to. Activity calls are given as the source filed them.
Tests used:
Hexokinase-1 = target: T1, Hexokinase-1 (Homo sapiens, UniProt P19367); assay: HK1 enzyme activation by HKDC1 hits – biochemical, selectivity assay for HKDC1 activator project, dose response (AID 504762); assay type: functional
T1 sequence (P19367 whole entry): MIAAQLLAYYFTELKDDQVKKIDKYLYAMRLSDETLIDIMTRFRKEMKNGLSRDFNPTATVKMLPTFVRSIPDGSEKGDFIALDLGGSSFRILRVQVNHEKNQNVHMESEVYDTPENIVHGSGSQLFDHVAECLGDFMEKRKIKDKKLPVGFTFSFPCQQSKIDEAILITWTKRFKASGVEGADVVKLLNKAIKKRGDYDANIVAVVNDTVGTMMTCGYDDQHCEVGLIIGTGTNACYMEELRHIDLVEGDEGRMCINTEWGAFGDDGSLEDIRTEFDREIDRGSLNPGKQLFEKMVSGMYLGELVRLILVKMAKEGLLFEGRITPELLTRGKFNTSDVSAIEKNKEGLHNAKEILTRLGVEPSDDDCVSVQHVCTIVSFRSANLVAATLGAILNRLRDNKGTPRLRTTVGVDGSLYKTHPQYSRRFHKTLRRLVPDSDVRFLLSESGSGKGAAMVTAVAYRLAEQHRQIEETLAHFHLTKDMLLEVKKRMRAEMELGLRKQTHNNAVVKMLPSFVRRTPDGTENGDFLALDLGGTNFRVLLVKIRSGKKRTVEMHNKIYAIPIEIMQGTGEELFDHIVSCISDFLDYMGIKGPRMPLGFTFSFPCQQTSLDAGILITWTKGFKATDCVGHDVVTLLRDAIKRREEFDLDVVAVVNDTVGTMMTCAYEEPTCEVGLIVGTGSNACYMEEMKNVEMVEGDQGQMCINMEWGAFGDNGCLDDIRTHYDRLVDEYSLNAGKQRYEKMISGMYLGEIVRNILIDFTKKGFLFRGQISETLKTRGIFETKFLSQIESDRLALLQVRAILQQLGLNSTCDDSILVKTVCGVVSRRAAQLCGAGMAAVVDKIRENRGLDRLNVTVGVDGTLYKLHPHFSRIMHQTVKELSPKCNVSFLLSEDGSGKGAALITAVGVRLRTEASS

Hexokinase HKDC1 = target: T2, Hexokinase HKDC1 (Homo sapiens, UniProt Q2TB90); assay: activation of HKDC1 glucose phosphorylation – biochemical, W721R variant, dose response (AID 504730); assay type: functional
T2 sequence (Q2TB90 whole entry): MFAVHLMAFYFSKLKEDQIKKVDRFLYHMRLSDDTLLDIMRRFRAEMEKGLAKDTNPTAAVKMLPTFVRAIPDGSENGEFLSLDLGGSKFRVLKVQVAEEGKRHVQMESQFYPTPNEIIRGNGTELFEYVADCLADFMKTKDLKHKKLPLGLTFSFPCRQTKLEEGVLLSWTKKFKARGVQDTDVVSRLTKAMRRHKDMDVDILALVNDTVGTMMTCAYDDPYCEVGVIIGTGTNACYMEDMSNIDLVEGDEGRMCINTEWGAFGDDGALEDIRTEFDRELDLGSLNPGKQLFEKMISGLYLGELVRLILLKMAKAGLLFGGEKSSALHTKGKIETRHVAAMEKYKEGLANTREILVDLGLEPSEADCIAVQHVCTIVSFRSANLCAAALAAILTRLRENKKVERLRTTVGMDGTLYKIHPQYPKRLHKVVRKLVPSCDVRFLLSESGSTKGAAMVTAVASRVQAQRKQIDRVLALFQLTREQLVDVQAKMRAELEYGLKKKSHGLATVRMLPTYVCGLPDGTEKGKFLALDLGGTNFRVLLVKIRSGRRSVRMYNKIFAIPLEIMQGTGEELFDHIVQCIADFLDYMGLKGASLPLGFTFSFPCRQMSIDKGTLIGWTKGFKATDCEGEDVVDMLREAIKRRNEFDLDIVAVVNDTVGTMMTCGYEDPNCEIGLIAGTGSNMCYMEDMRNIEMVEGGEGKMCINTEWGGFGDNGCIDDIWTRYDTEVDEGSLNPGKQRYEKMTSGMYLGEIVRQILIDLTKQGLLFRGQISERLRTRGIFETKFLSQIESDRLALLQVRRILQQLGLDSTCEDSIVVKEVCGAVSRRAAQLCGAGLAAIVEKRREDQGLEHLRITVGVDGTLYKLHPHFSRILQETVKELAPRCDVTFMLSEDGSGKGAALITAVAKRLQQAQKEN

[1] = target: T3, Sentrin-specific protease 8 (Homo sapiens, UniProt Q96LD8); assay type: functional
T3 sequence (Q96LD8 whole entry): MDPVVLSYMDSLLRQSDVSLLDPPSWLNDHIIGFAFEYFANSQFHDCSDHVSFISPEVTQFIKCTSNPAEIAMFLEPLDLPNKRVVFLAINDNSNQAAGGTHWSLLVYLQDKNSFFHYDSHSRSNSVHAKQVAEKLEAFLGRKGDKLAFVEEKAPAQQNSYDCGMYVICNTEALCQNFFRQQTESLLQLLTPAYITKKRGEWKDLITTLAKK

[2] = target: T3, Sentrin-specific protease 8; assay type: functional; remark: listed apart in the source
Escherichia coli = assay: microbe, parasite or virus in culture
[3] = target: T3, Sentrin-specific protease 8; assay: inhibition of human SENP8 cleavage activity – biochemical, luminescence, SAR follow-up (AID 504501); assay type: functional
[4] = target: T4, Sentrin-specific protease 6 (Homo sapiens, UniProt Q9GZR1); assay: SAR Analysis of small molecule inhibitors of Sentrin-specific protease 6 (SENP6) using a Luminescent assay. [Related pubchem assays (depositor defined):AID2582, AID2599]; assay type: functional
T4 sequence (Q9GZR1 whole entry): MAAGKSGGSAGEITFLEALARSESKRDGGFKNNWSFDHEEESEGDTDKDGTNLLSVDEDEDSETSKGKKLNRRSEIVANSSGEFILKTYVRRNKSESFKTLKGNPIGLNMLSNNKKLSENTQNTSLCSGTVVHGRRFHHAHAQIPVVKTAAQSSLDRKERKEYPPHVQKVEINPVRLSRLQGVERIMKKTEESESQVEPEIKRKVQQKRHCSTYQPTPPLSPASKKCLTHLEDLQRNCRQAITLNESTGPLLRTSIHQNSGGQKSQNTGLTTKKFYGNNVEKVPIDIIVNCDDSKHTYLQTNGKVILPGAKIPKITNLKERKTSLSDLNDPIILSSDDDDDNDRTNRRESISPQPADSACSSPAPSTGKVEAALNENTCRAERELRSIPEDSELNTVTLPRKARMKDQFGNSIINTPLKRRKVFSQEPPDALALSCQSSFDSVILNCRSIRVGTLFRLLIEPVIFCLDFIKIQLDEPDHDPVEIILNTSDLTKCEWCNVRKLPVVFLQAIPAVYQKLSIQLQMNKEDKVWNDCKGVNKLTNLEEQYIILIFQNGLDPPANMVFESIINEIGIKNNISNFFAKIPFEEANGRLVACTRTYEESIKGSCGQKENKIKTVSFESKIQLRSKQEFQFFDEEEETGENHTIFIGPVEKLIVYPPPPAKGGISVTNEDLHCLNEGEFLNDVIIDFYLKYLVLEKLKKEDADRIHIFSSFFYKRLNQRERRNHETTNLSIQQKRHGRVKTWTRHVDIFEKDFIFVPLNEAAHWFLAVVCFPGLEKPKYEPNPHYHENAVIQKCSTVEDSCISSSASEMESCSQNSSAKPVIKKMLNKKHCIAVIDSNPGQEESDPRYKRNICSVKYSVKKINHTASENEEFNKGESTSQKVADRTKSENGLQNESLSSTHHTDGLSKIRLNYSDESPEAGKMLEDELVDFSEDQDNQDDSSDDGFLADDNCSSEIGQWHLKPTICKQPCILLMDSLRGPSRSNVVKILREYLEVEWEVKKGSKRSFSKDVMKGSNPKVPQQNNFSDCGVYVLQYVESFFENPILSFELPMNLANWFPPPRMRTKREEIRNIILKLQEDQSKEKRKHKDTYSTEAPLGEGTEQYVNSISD

Caspase-3 = target: T5, Caspase-3 (Homo sapiens, UniProt P42574); assay: SAR Analysis of small molecule inhibitors of Sentrin-specific proteases (SENPs) using a Caspase-3 Selectivity assay. [Related pubchem assays (depositor defined):AID2540, AID2599, AID434973, AID489001]; assay type: functional
T5 sequence (P42574 whole entry): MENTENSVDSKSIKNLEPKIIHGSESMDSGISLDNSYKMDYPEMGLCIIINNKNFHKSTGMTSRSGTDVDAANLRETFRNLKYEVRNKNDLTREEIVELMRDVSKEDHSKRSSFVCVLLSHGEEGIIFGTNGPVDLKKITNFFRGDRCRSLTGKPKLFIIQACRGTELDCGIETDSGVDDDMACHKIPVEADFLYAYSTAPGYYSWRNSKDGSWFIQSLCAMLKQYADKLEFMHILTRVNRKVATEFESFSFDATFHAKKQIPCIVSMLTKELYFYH

[5] = target: T6, Small ubiquitin-related modifier 1 (Homo sapiens, UniProt P63165); assay: SUMO1 protein interaction blockers, potency – biochemical, fluorescence polarization, uHTS hits, dose response (AID 624382); assay type: functional; conditions: read-out: IC50_Mean
[6] = target: T6, Small ubiquitin-related modifier 1; assay: SUMO1 protein-protein binding blockers, potency – biochemical, FRET, dose response (AID 624383); assay type: functional; conditions: read-out: IC50_Mean
[7] = target: T7, Low molecular weight phosphotyrosine protein phosphatase (Homo sapiens, UniProt P24666); assay type: functional; conditions: read-out: IC50_Mean;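 also: Dose-response confirmation assay measuring inhibition of LMPTP enzyme activity by fluorescence intensity read-out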
T7 sequence (P24666 whole entry): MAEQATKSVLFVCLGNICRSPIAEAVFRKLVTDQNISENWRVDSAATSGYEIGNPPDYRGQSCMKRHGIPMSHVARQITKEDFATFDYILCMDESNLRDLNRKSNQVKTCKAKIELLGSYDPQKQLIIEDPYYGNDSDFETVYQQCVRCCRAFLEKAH

[8] = target: Intestinal-type alkaline phosphatase (Mus musculus, UniProt P24822); assay: PubChem AID 488785; assay type: functional
[9] = target: Intestinal-type alkaline phosphatase (Homo sapiens, UniProt P09923); assay: inhibition of human intestinal alkaline phosphatase – biochemical, dose response (AID 488876); assay type: functional
[10] = target: T8, Alkaline phosphatase, tissue-nonspecific isozyme (Homo sapiens, UniProt P05186); assay: TNAP enzyme inhibition by screening hits, dose response, selectivity assay for mouse IAP inhibitor project, biochemical, human TNAP, uHTS hits (AID 488906); assay type: functional
T8 sequence (P05186 whole entry): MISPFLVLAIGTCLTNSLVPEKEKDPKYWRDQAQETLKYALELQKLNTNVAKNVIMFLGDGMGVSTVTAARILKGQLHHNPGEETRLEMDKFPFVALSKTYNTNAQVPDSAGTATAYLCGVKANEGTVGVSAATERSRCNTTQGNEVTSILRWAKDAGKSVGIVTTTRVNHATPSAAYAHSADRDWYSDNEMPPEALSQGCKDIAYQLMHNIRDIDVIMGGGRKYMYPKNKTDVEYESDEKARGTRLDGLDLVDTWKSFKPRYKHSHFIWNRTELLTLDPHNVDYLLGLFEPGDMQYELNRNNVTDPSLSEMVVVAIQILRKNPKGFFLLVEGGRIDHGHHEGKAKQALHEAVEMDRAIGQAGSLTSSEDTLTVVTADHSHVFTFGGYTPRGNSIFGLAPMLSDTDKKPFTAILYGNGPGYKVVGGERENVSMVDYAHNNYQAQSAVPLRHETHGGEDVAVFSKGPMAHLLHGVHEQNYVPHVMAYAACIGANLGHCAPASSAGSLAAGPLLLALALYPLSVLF

T6 sequence (P63165 whole entry): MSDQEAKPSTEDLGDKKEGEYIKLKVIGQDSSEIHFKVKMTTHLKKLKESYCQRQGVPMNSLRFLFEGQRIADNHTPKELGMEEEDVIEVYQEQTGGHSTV
Intestinal-type alkaline phosphatase (Mus musculus, UniProt P24822), sequence (P24822 whole entry): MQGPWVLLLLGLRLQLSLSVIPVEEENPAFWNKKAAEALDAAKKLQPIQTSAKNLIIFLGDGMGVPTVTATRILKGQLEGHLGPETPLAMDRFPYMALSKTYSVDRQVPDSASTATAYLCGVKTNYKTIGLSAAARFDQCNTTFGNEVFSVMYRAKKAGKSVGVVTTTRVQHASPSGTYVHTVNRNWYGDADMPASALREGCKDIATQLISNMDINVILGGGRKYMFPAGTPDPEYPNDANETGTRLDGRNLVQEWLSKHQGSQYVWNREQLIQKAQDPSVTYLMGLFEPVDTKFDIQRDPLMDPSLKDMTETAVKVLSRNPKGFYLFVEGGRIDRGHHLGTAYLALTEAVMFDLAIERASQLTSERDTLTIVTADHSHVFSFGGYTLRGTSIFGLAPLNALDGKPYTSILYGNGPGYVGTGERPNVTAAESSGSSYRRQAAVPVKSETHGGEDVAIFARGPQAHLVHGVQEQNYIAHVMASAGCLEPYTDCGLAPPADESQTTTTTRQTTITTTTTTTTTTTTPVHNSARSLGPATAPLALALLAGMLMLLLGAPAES
Intestinal-type alkaline phosphatase (Homo sapiens, UniProt P09923), sequence (P09923 whole entry): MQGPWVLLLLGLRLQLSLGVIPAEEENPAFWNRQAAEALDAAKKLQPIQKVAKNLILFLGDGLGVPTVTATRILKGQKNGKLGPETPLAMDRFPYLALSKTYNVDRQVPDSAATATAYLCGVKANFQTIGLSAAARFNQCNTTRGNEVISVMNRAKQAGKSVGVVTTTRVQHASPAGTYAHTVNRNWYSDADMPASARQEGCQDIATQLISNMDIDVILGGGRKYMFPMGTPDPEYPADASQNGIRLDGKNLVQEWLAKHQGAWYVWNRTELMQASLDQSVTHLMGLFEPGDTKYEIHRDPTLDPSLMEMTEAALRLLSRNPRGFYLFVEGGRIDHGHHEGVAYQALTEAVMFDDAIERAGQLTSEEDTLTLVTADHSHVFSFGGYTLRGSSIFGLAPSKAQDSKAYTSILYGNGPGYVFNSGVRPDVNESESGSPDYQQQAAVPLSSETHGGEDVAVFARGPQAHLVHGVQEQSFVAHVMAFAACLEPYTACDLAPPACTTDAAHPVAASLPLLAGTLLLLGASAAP

EC50 (Hexokinase-1): 17.8 µM (active) | EC50 (Hexokinase HKDC1): 10 µM (active)
Structure (SMILES): Cc1ccc(C2=NN=C(Nc3ccc(F)cc3)SC2)cc1

Structure (SMILES): CCOC(=O)c1ccc(N2C(=O)Cc3ccccc3C2=O)cc1
IC50 [1]: 12 µM (active) | IC50 [2]: > 100 µM (inactive)

Structure (SMILES): C[N+](C)(CCCCCC[N+](C)(C)CCCN1C(=O)c2cccc3cccc(c23)C1=O)CCCN1C(=O)c2cccc3cccc(c23)C1=O
EC50 (Hexokinase-1): 17.9 µM (active) | EC50 (Hexokinase HKDC1): 20.4 µM (inactive)

Structure (SMILES): CCc1cc(Cl)c(OC)c(C(=O)NC[C@@H]2CCCN2CC)c1O
AC50 (Escherichia coli): 19.4 µM (active)

Structure (SMILES): CC(=O)c1ccc(-n2nnnc2SCC(=O)N2CCc3ccccc3C2)cc1
IC50 [1]: 8.03 µM (active) | IC50 [2]: 10.2 µM (active)

IC50 [4]: > 99 µM (inactive) | IC50 (Caspase-3): 3.7 µM (active)
Structure (SMILES): COC(=O)c1ccc(NC(=O)c2ccc3c(c2)OCO3)cc1
IC50 [3]: > 99 µM (inactive)

Structure (SMILES): O=C(Nc1ccc2c(c1)C(=O)NC2=O)c1ccc2ncsc2c1
IC50 [5]: > 66.6 µM (inactive) | IC50 [6]: 8.45 µM (active)

IC50 [7]: 6.49 µM (active)
Structure (SMILES): Cc1cc(N2CCN(C(C(=O)NC3CCCC3)c3ccc(-c4ccccc4)cc3)CC2)c2ccccc2n1 (configuration not stated)

EC50 (Hexokinase-1): 39.4 µM (inactive) | EC50 (Hexokinase HKDC1): 23.9 µM (inactive)
Structure (SMILES): COC(=O)c1c(NC(C)=O)sc(Cc2ccccc2)c1C

Structure (SMILES): COc1c(F)c(F)cc2c(=O)c(C(=O)O)cn(C3CC3)c12
AC50 (Escherichia coli): 3.88 µM (active)

Structure (SMILES): COc1ccc(/C=C(/NC(=O)c2cccc([N+](=O)[O-])c2)C(=O)O)cc1OC
AC50 (Escherichia coli): 18.5 µM (active)

Structure (SMILES): O=C(NC1CCCCC1)Oc1cc2oc(=O)sc2cc1Cl
IC50 [8]: 3.78 µM (active) | IC50 [9]: 3.54 µM (active) | IC50 [10]: 11.8 µM (active)

From ChEMBL document CHEMBL1201862, “PubChem BioAssay data set” (2004)
